Marks after values point to notes of the source that are not given here.
Legend:
[1] = Photophysical properties (fluorescence excitation/emission in PBS); assay type: physicochemical; conditions: 10 μM solution in PBS
Procedure: In general, renally excretable compounds are dissolved in PBS buffer to form a 2 mM stock solution. The UV absorbance properties are determined on a 100 μM solution in PBS using a UV-3101PC UV-Vis-NIR Scanning spectrophotometer system from Shimadzu. The fluorescence properties (λex, λem, and CPS at λem) are determined on a 10 μM solution in PBS using a Fluorolog-3 spectrofluorometer system from Jobin Yvon Horiba. The percent plasma protein binding is determined on a 20 μM compound solution in rat plasma incubated at 37° C. for 1 h. The separation of free from bound is made using an Amicon Centrifree YM-30 device (Regenerated Cellulose 30,000 MWCO) and a Z400K Refrigerated Universal Centrifuge from Hermle. The concentration of protein-free is determined via HPLC analysis using a set of external calibration standards and fluorescence detection.

[2] = Urine elimination studies; assay type: in vivo, Sprague-Dawley rats; conditions: rat, 1 mL of 2 mM in PBS by tail vein injection, mean ± SEM (n)
Procedure: Rat urine elimination studies are conducted in either conscious or anesthetized Sprague-Dawley rats. The test compound (1 mL, 2 mM in PBS) is administered by tail vein injection into conscious, restrained rats, with subsequent collection of urine at the time points of 2, 4 and 6 h post injection. The metabolic cages are washed with water to maximize the recovery of urine discharged at each time point. Alternatively, rats are anesthetized with 100 mg/kg Inactin intraperitoneally, a trachea tube is inserted to maintain adequate respiration, and 1 mL of test compound is injected into the lateral tail vein. Rats are placed on 37° C. heating pad during the entire experiment. At 6 h post injection, the abdomen is opened, and the urine is removed from the bladder using a 21 gauge needle and a 3 cc syringe. Quantitation of each compound in urine is performed via HPLC analysis using a set of external calibration standards and fluorescence detection. The percent recovery of compound in urine at each time point is calculated based on the balance of mass.

[3] = Non-invasive optical pharmacokinetic studies (fluorescence at the ear); assay type: in vivo, Sprague-Dawley rats; conditions: rat ear fluorescence, 1 mL of 2 mM solution into tail vein; mean ± SEM (n)
Procedure: Male Sprague-Dawley rats (330-380 g) are anesthetized by Inactin (I.P.) or 2% Isoflurane gas anesthesia delivered by a small rodent gas anesthesia machine (RC2, Vetequip, Pleasanton, Calif.). The animals are placed on a heated board where temperature is maintained between 36-38° C. One ear lobe is glued flat to a glass slide positioned approximately 2 mm beneath a fiber optic bundle for recording fluorescence from a test compound passing through the ear. After a 100 second baseline recording, 1 mL of a 2 mM solution is injected into the tail-vein of the rat and the fluorescence signal corresponding to plasma and tissue distribution and subsequent renal clearance of the compound is monitored at the ear. The pharmacokinetic parameters of the compounds are analyzed using WinNonLin pharmacokinetic modeling software (Pharsight, Mountain View, Calif.) and Microsoft (Redmond, Wash.) Excel. This method is used to detect renally excretable compounds of the invention and FIG. 8A provides a plot illustrating non-invasive in vivo fluorescence as a function of time following delivery of a renally excretable compound.
A nominal 473 nm solid state laser source (100) is employed (Power Technology model LDCU12/7314). The laser source is directed into one leg (110) of a silica bifurcated fiber optic bundle (120) (Oriel #77565). The common end of this bifurcated bundle (130) is placed approximately 2 mm from the rat ear (140). The second leg of the bifurcated fiber optic bundle (150) is fitted with a collimating beam probe (160) (Oriel #77644). A long pass filter (170) (Semrock LP02-488RS-25) and narrow band interference filter (180) (Semrock FF01-593/40-25) are placed in front of a photomultiplier tube (190) (Hamamatsu photosensor module H7827-011).
A chopper (200) (Stanford Research Systems model SR540) is placed after the laser and before the launch into the bifurcated cable. The output of the photosensor is connected to a lock-in amplifier (210) (Stanford Research Systems model SR830). The lock-in output is digitized (220) (National Instruments NI-USB-6211) and the digitized data is acquired by computer using LabVIEW® data acquisition software (230).

[4] = Invasive pharmacokinetic studies (plasma concentration); assay type: in vivo, Sprague-Dawley rats; conditions: rat plasma, 1 mL of 2 mM solution i.v., mean ± SEM (n); for clearance: male, Sprague-Dawley, iv, 1 mL of a 2 mM solution, read-out: Pharmacokinetics Clearance
Procedure: (§1) Male Sprague-Dawley rats (330-380 g) are anesthetized by Inactin (I.P.). Rats are surgically instrumented with a trachea tube (PE-190) to facilitate breathing and femoral artery and vein catheters (PE-50 filled with 20 units/mL heparinized saline) for blood sampling and drug administration respectively. After administration of 1 mL of a 2 mM solution of agent, approximately 200 μL blood is sampled and placed into a heparinized tube (Microtainer Brand Tube w/Lithium Heparin, BD 365971) at 0, 1, 6, 12, 18, 30, 45, 60, 90, 120 min. The concentration of compound in each centrifuged plasma sample is determined via HPLC analysis using a set of external calibration standards and fluorescence detection. The resulting pharmacokinetic parameters of the compound are analyzed using WinNonLin pharmacokinetic modeling software (Pharsight, Mountain View, Calif.). This method is used to detect renally excretable compounds of the invention and FIG. 8B provides a plot illustrating invasive PK (plasma concentration) as a function of time following delivery of a renally excretable compound.

[5] = Probenecid inhibition studies (invasive pharmacokinetics after probenecid); assay type: in vivo, Sprague-Dawley rats; conditions: rat plasma, 70 mg/kg Probenecid 10 min prior to test compound, values in brackets, mean ± SEM (n)
Procedure: as §1
Six male Sprague-Dawley rats are treated in the same manner as described above in the invasive pharmacokinetic studies. These 6 rats receive 70 mg/kg Probenecid (Sigma-Aldrich; St. Louis, Mo.) 10 min prior to the test compound; this administration is flushed with 0.2 ml NaCl.

Structure (SMILES) | Photophysical Properties Emission λmax [1] [nm] | Photophysical Properties Excitation λmax [1] [nm] | Percent found in Urine (6 hrs) [2] | Tissue Clearance (Optical) T1/2β [3] | clearance [4] [mL/min] | Pharmacokinetics T1/2β [4] | clearance ([5]; male, Sprague-Dawley, iv, with probenecid 70 mg/kg, 10 min prior to the test compound, read-out: Pharmacokinetics Clearance, probenecid challenge experiment) [mL/min] | Pharmacokinetics T1/2β, probenecid challenge experiment [5]
COCCOCCOCCOCCCNc1nc(C(=O)NCCOCCOCCOCCOCCOCCOCCOCCOCCOCCOCCOCCOCCOCCOCCOCCOCCOCCOCCOCCOCCOCCOCCOCCOC)c(NCCCOCCOCCOCCOC)nc1C(=O)NCCOCCOCCOCCOCCOCCOCCOCCOCCOCCOCCOCCOCCOCCOCCOCCOCCOCCOCCOCCOCCOCCOCCOCCOC [Compound 7, 3,6-Bis(2,5,8,11-tetraoxatetradecan-14-ylamino)-N^2,N^5-di(2,5,8,11,14,17,20,23,26,29,32,35,38,41,44,47,50,53,56,59,62,65,68,71-tetracosaoxatriheptacontan-73-yl)pyrazine-2,5-dicarboxamide] | 602 | 494 | 97 ± 2 (3) Percent | 14.6 ± 1.1 (4) min | – | – | – | –
COCCOCCOCCOCCOCCOCCOCCOCCOCCOCCOCCOCCCNc1nc(C(=O)NCCOCCOCCOCCOCCOCCOCCOCCOCCOCCOCCOCCOCCOCCOCCOCCOCCOCCOCCOCCOCCOCCOCCOCCOC)c(NCCCOCCOCCOCCOCCOCCOCCOCCOCCOCCOCCOCCOC)nc1C(=O)NCCOCCOCCOCCOCCOCCOCCOCCOCCOCCOCCOCCOCCOCCOCCOCCOCCOCCOCCOCCOCCOCCOCCOCCOC [Compound 3, 3,6-Bis(2,5,8,11,14,17,20,23,26,29,32,35-dodecaoxaoctatriacontan-38-ylamino)-N^2,N^5-di(2,5,8,11,14,17,20,23,26,29,32,35,38,41,44,47,50,53,56,59,62,65,68,71-tetracosaoxatriheptacontan-73-yl)pyrazine-2,5-dicarboxamide] | 602 | 499 | 89 ± 2 (3) Percent | 20.4 ± 2.0 (4) min | 2.5 ± 0.2 | 30.5 ± 3.2 (3) min | – | –
COCCOCCOCCOCCCNc1nc(C(=O)NCCOCCOCCOCCOCCOCCOCCOCCOCCOCCOCCOCCOC)c(NCCCOCCOCCOCCOC)nc1C(=O)NCCOCCOCCOCCOCCOCCOCCOCCOCCOCCOCCOCCOC [Compound 15, 3,6-Bis(2,5,8,11-tetraoxatetradecan-14-ylamino)-N^2,N^5-di(2,5,8,11,14,17,20,23,26,29,32,35-dodecaoxaheptatriacontan-37-yl)pyrazine-2,5-dicarboxamide] | 603 | 492 | 86 ± 1 (3) Percent | – | – | – | – | –
COCCOCCOCCOCCOCCOCCOCCOCCOCCOCCOCCOCCOCCOCCOCCOCCOCCOCCOCCOCCOCCOCCOCCOCCCNc1nc(C(=O)NCCOCCOCCOCCOCCOCCOCCOCCOCCOCCOCCOCCOCCOCCOCCOCCOCCOCCOCCOCCOCCOCCOCCOCCOC)c(NCCCOCCOCCOCCOCCOCCOCCOCCOCCOCCOCCOCCOCCOCCOCCOCCOCCOCCOCCOCCOCCOCCOCCOCCOC)nc1C(=O)NCCOCCOCCOCCOCCOCCOCCOCCOCCOCCOCCOCCOCCOCCOCCOCCOCCOCCOCCOCCOCCOCCOCCOCCOC [Compound 5, 3,6-bis(2,5,8,11,14,17,20,23,26,29,32,35,38,41,44,47,50,53,56,59,62,65,68,71-tetracosaoxatetraheptacontan-74-ylamino)-N^2,N^5-di(2,5,8,11,14,17,20,23,26,29,32,35,38,41,44,47,50,53,56,59,62,65,68,71-tetracosaoxatriheptacontan-73-yl)pyrazine-2,5-dicarboxamide] | 603 | 495 | 86 ± 7 (3) Percent | 17.6 ± 0.9 (4) min | – | – | – | –
COCCOCCOCCOCCOCCOCCOCCOCCCNc1nc(C(=O)N[C@H](CO)C(=O)O)c(NCCCOCCOCCOCCOCCOCCOCCOCCOC)nc1C(=O)N[C@H](CO)C(=O)O [Compound 8, 3,6-Bis(2,5,8,11,14,17,20,23-octaoxahexacosan-26-ylamino)-N^2,N^5-bis[(R)-1-carboxy-2-hydroxyethyl]pyrazine-2,5-dicarboxamide] | – | – | 61 ± 7 (3) Percent | – | – | – | – | –
COCCOCCOCCOCCOCCOCCOCCOCCCNc1nc(C(=O)NCCOCCOCCOCCOCCOCCOCCOCCOCCOCCOCCOCCOCCOCCOCCOCCOCCOCCOCCOCCOCCOCCOCCOCCOC)c(NCCCOCCOCCOCCOCCOCCOCCOCCOC)nc1C(=O)NCCOCCOCCOCCOCCOCCOCCOCCOCCOCCOCCOCCOCCOCCOCCOCCOCCOCCOCCOCCOCCOCCOCCOCCOC [Compound 6, 3,6-bis(2,5,8,11,14,17,20,23-octaoxahexacosan-26-ylamino)-N^2,N^5-di(2,5,8,11,14,17,20,23,26,29,32,35,38,41,44,47,50,53,56,59,62,65,68,71-tetracosaoxatriheptacontan-73-yl)pyrazine-2,5-dicarboxamide] | 603 | 498 | 92 ± 4 (3) Percent | 19.1 ± 0.8 (4) min | – | – | – | –
COCCOCCOCCOCCCNc1nc(C(=O)NCC(O)CO)c(NCCCOCCOCCOCCOC)nc1C(=O)NCC(O)CO (stereo not shown) [Compound 13, 3,6-Bis(2,5,8,11-tetraoxatetradecan-14-ylamino)-N^2,N^5-bis(2,3-dihydroxypropyl)pyrazine-2,5-dicarboxamide] | – | – | 29 ± 2 (3) Percent | – | – | – | – | –
COCCOCCOCCOCCOCCOCCOCCOCCOCCOCCOCCOCCCNc1nc(C(=O)NCCOCCOCCOCCOCCOCCOCCOCCOCCOCCOCCOCCOC)c(NCCCOCCOCCOCCOCCOCCOCCOCCOCCOCCOCCOCCOC)nc1C(=O)NCCOCCOCCOCCOCCOCCOCCOCCOCCOCCOCCOCCOC [Compound 1, 3,6-Bis(2,5,8,11,14,17,20,23,26,29,32,35-dodecaoxaoctatriacontan-38-ylamino)-N^2,N^5-di(2,5,8,11,14,17,20,23,26,29,32,35-dodecaoxaheptatriacontan-37-yl)pyrazine-2,5-dicarboxamide] | 605 | 500 | 97 ± 0.4 (3)^b Percent | 19.9 ± 2.4 (3) min | 3.1 ± 0.2 | 18.8 ± 0.6 (3) min | 3.3 | [18.0 ± 0.3 (3)]^c min
